Laboratory results published in patent publication US12275731B2, “Azaindole inhibitors of wild-type and mutant forms of LRRK2” (DANA-FARBER CANCER INSTITUTE, INC., priority 2018, dated 2025).

Legend:
Test in all cases: KinomeScan profiling
Type in all cases: binding
AAK1 = molecular target: T1, AAK1 (Homo sapiens, UniProt Q2M2I8); conditions: AAK1, 1 μM; read-out: % control
T1 construct: purchased KinomeScan®
In short: (§1)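 At 1 μM in DMSO, compounds are run through a broad 468-member kinase panel. The luminescent read-out is normalised so that vehicle gives 100% and a positive control gives 0%; any kinase falling below 35% is treated as a target.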

[1] = molecular target: T2, ABL1(F317L)-nonphosphorylated (Homo sapiens, UniProt P00519, F317L); conditions: read-out: % control
T2 construct: purchased KinomeScan®
In short: as §1

CAMKK1 = CAMKK1 (Homo sapiens, UniProt Q8N5S9); conditions: CAMKK1, 1 μM; read-out: % control
In short: as §1

DCAMKL3 = molecular target: T3, DCAMKL3 (Homo sapiens, UniProt Q9C098); conditions: DCAMKL3, 1 μM; read-out: % control
T3 sequence (Q9C098 1-648): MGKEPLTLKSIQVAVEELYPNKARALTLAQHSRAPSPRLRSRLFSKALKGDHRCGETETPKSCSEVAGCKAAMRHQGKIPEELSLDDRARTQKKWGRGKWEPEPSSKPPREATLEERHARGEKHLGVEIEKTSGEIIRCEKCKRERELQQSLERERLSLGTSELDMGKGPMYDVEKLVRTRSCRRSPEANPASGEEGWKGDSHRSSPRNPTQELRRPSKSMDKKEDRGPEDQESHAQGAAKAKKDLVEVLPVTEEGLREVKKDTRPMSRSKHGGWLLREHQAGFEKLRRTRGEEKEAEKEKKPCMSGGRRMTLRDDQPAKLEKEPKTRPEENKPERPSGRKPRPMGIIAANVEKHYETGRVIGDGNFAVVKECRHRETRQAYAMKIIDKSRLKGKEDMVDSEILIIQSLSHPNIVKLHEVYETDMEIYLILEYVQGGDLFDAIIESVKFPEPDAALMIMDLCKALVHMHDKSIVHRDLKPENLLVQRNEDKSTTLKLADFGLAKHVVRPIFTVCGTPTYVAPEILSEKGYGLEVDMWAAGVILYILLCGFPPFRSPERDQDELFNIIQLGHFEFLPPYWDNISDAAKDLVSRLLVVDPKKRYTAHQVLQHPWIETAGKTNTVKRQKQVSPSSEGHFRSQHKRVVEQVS
In short: as §1

EGFR(T790M) = EGFR(T790M) (Homo sapiens, UniProt P00533, T790M); conditions: read-out: % control
In short: as §1

LIMK1 = LIMK1 (Homo sapiens, UniProt P53667); conditions: LIMK1, 1 μM; read-out: % control
In short: as §1

MAP3K1 = MAP3K1 (Homo sapiens, UniProt Q13233); conditions: MAP3K1, 1 μM; read-out: % control
In short: as §1

MTOR = MTOR (Homo sapiens, UniProt P42345); conditions: read-out: % control
In short: as §1

NEK6 = NEK6 (Homo sapiens, UniProt Q9HC98); conditions: NEK6, 1 μM; read-out: % control
In short: as §1

SGK2 = molecular target: T4, SGK2 (Homo sapiens, UniProt Q9HBY8); conditions: SGK2, 1 μM; read-out: % control
T4 construct: purchased KinomeScan® (panel service)
T4 sequence (Q9HBY8 1-367): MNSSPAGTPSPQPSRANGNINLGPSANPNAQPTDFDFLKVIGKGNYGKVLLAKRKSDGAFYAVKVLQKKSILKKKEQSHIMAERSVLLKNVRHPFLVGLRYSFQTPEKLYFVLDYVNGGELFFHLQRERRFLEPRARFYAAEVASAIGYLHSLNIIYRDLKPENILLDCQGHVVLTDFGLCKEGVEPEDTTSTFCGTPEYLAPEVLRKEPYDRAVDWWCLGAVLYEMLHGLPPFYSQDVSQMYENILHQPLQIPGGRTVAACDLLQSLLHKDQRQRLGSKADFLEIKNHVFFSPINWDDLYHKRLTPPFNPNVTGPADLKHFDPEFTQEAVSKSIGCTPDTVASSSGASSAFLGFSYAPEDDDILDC
In short: as §1

TLK1 = molecular target: T5, TLK1 (Homo sapiens, UniProt Q9UKI8); conditions: TLK1, 1 μM; read-out: % control
T5 sequence (Q9UKI8 1-766): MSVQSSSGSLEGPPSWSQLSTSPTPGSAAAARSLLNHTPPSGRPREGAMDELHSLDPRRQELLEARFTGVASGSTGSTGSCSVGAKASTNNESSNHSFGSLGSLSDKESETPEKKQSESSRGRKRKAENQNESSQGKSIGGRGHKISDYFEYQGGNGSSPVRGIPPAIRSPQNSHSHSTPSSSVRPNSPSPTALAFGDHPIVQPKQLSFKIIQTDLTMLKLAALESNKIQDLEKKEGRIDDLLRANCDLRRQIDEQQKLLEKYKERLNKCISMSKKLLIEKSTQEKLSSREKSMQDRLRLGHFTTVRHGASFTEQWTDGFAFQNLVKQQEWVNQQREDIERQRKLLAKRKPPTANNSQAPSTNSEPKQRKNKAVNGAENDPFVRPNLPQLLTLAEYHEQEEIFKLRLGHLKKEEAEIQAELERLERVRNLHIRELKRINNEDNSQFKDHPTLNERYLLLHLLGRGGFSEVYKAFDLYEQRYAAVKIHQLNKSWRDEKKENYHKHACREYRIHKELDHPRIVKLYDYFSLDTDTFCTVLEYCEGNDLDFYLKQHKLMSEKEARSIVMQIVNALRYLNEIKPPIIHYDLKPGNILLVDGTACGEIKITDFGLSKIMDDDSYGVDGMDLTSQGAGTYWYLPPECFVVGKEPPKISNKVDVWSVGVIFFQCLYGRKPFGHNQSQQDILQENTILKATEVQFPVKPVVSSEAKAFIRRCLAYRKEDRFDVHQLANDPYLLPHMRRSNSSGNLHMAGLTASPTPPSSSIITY
In short: as §1

TNIK = TNIK (Homo sapiens, UniProt Q9UKE5); conditions: read-out: % control
In short: as §1

p38-beta = p38-beta (Homo sapiens, UniProt Q15759); conditions: read-out: % control
In short: as §1

EGFR(T790M), sequence (P00533 25-1210 T790M): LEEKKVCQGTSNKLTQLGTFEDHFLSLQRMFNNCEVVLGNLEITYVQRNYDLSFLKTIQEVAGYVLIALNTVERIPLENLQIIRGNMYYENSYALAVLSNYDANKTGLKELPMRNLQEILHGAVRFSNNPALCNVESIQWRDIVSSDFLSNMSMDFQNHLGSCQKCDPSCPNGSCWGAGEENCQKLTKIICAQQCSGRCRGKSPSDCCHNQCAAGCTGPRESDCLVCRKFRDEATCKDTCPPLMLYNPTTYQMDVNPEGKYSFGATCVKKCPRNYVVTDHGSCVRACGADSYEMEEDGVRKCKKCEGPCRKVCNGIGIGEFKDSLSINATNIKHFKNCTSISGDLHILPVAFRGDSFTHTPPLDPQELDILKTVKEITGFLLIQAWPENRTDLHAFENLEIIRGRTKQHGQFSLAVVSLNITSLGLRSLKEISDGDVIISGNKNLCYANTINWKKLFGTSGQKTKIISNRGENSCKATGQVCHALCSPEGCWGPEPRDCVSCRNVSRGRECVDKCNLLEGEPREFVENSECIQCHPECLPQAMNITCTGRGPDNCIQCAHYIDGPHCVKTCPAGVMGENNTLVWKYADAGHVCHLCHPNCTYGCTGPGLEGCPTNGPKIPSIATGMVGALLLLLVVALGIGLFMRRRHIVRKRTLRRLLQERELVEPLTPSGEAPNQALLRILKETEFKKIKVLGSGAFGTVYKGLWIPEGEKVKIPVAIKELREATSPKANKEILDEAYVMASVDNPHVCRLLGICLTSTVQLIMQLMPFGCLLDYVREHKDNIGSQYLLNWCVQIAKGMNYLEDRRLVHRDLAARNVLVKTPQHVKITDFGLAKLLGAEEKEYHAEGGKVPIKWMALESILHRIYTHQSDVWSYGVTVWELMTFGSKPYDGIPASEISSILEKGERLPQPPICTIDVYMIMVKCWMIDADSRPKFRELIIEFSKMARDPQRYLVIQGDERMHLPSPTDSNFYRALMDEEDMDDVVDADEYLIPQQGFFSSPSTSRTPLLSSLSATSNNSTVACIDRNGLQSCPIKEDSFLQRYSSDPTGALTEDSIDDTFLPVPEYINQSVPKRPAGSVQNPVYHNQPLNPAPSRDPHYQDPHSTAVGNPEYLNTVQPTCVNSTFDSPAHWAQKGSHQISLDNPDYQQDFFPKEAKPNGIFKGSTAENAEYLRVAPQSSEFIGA
TNIK, sequence (Q9UKE5 whole entry): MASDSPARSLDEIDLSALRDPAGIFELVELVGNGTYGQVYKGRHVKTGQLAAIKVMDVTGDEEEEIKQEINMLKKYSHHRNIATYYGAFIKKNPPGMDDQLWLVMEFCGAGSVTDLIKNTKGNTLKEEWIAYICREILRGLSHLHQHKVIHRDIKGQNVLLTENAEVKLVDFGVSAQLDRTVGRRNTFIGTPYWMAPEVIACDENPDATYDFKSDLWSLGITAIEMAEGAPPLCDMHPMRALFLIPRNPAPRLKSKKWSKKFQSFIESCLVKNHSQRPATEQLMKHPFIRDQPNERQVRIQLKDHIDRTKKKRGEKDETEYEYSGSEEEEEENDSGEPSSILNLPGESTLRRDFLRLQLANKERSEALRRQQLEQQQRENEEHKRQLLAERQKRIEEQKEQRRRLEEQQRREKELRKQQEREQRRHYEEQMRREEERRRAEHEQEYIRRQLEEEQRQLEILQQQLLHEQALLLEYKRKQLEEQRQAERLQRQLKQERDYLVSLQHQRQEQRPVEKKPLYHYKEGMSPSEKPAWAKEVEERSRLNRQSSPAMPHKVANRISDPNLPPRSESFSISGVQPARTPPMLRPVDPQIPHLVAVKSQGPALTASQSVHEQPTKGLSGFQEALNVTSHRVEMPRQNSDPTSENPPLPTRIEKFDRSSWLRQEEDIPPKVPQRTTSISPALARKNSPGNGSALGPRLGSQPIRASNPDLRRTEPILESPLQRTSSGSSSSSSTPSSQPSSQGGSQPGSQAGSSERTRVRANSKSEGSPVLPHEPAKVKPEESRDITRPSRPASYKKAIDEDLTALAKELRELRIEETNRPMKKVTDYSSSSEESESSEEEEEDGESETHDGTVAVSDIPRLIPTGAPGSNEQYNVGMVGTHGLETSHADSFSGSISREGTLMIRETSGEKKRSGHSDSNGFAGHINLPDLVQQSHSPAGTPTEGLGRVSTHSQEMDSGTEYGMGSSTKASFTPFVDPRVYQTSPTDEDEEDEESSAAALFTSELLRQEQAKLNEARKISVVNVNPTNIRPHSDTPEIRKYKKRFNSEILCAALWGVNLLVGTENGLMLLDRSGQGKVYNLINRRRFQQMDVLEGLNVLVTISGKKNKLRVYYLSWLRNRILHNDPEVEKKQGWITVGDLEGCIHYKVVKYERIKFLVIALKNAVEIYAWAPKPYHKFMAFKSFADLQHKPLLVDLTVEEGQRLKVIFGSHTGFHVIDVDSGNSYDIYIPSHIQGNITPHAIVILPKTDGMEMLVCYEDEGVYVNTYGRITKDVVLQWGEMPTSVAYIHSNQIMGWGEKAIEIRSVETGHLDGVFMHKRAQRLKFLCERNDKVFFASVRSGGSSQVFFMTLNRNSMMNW
T1 sequence (Q2M2I8 whole entry): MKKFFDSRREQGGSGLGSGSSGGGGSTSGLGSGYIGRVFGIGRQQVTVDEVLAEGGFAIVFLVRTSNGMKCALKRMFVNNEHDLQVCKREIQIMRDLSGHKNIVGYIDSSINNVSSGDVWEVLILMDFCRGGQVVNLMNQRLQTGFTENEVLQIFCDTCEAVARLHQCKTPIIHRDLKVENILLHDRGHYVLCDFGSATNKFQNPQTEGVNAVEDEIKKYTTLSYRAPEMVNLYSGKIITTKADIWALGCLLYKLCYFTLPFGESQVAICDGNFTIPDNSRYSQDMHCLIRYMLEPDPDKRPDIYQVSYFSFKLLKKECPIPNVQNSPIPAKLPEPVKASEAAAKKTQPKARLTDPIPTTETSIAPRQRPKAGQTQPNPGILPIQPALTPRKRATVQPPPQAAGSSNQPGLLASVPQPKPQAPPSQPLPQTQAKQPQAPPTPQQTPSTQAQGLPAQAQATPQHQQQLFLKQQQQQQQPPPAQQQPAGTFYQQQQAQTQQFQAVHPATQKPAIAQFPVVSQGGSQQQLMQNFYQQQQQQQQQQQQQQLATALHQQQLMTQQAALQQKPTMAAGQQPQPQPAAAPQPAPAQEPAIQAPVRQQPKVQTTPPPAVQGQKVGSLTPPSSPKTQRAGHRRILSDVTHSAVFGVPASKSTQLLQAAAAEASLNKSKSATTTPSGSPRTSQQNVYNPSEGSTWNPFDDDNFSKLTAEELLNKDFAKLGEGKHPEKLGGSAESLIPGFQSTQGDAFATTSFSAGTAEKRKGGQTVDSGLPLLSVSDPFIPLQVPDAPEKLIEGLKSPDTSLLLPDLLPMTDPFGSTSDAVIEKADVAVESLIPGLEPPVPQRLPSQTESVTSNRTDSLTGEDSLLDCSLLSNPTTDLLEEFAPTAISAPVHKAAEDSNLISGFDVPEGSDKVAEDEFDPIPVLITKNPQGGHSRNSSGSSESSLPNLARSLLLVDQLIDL
MAP3K1, sequence (Q13233 whole entry): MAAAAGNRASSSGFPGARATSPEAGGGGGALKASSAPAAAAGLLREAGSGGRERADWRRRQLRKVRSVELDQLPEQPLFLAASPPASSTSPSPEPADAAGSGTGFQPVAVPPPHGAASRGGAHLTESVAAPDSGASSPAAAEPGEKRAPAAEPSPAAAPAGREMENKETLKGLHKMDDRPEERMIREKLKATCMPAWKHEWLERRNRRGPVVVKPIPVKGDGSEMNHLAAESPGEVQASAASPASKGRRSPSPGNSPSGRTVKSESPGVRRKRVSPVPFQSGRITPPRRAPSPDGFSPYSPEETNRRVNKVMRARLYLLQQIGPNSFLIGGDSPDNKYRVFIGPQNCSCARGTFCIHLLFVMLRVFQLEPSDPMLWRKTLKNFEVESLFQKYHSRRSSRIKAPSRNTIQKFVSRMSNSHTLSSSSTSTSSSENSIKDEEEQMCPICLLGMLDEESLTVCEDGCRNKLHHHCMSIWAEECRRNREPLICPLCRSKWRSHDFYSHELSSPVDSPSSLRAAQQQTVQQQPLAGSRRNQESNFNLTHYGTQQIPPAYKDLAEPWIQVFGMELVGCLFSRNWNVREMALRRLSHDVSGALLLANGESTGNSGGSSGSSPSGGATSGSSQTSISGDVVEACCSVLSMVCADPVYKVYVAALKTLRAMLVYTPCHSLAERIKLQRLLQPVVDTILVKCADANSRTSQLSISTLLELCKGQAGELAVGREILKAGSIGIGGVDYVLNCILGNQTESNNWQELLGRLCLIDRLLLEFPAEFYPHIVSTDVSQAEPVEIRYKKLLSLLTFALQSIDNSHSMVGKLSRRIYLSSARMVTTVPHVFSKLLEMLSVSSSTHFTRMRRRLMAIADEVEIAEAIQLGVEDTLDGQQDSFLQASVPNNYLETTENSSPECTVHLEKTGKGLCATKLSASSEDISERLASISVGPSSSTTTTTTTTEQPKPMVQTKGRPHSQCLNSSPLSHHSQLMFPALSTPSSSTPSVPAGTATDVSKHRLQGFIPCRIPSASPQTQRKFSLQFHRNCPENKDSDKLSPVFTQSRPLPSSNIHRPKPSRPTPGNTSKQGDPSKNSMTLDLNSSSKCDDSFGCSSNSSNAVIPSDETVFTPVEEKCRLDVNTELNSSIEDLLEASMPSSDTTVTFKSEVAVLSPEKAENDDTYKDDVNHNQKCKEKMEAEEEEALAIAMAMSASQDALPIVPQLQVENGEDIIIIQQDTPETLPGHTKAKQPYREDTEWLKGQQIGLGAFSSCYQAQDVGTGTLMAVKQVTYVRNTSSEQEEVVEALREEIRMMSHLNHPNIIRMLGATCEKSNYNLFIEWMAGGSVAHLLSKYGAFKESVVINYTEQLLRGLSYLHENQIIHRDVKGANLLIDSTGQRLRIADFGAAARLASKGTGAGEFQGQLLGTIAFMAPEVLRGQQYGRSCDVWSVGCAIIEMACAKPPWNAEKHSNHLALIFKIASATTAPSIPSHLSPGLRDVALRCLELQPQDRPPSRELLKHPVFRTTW

| Structure (SMILES) | remaining binding at 1 µM (AAK1) [%] | remaining binding at 1 µM [1] [%] | remaining binding at 1 µM (CAMKK1) [%] | remaining binding at 1 µM (DCAMKL3) [%] | remaining binding at 1 µM (EGFR(T790M)) [%] | remaining binding at 1 µM (LIMK1) [%] | remaining binding at 1 µM (MAP3K1) [%] | remaining binding at 1 µM (MTOR) [%] | remaining binding at 1 µM (NEK6) [%] | remaining binding at 1 µM (SGK2) [%] | remaining binding at 1 µM (TLK1) [%] | remaining binding at 1 µM (TNIK) [%] | remaining binding at 1 µM (p38-beta) [%] |
| --- | --- | --- | --- | --- | --- | --- | --- | --- | --- | --- | --- | --- | --- |
| CNc1c(-c2cnn([C@H]3CCN(C(C)=O)C[C@@H]3F)c2)cnc2[nH]cc(Cl)c12 [Compound 77, 1-((3S,4S)-4-(4-(3-chloro-4-(methylamino)-1H-pyrrolo[2,3-b]pyridin-5-yl)-1H-pyrazol-1-yl)-3-fluoropiperidin-1-yl)ethan-1-one] | 36 | 95 | 74 | 95 | 93 | 100 | 56 | 60 | 92 | 43 | 95 | 29 | 95 |
| O=C(c1ccc(-c2cnc3[nH]cc(Cl)c3c2NC2CCCC2)cc1)N1CCC(N2CCOCC2)CC1 [Compound 101, (4-(3-chloro-4-(cyclopentylamino)-1H-pyrrolo[2,3-b]pyridin-5-yl)phenyl)(4-morpholinopiperidin-1-yl)methanone] | 67 | 10 | 87 | 84 | 100 | 76 | 100 | 95 | 100 | 65 | 90 | 89 | 92 |
| CNc1c(-c2ccc(C(=O)N3CCC(N4CCOCC4)CC3)cc2)cnc2[nH]cc(Cl)c12 [Compound 96, (4-(3-chloro-4-(methylamino)-1H-pyrrolo[2,3-b]pyridin-5-yl)phenyl)(4-morpholinopiperidin-1-yl)methanone] | 23 | 100 | 78 | 99 | 83 | 100 | 73 | 78 | 88 | 30 | 95 | 14 | 58 |
